Test results as given in paper PMC7203245, “Lacosamide intake during pregnancy increases the incidence of foetal malformations and symptoms associated with schizophrenia in the offspring of mice” (Scientific Reports, 2020).

Assay: LCM and related compounds (RC) in embryos and mothers' serum by high-resolution MS/MSe
Format: in vivo, mice
Conditions: for presence in the serum of mothers: dams given 10-120 mg/kg LCM
Protocol: Samples were extracted as described previously[25] with slight modifications. Briefly, embryos were rinsed with cold saline and ultrapure water, and their wet-weight was determined. […] The mixture was vortexed vigorously for 3 min and centrifuged at 13,000 g for 5 min. The supernatant was transferred to a new Eppendorf tube and evaporated to dryness in a stream of nitrogen gas. The residue was reconstituted with 50 µL of LC-MS Ultrapure water, vortexed for 20 s and centrifuged at 13,000 g for 5 min. The supernatant was transferred to a conic micro insert to be injected onto the UHPLC system.
MS spectra data were collected between m/z 50 and 1000, and MS/MS spectra were registered between 50-300 Da. […] The MS^e procedure was used to identify metabolites in positive ionization mode. UPLC–QTOF-MS^e detection collects data using two scan functions, providing fragment ion information without precursor ion selection. A characteristic m/z in the low energy function allows identification through the fragment ions obtained with the high collision energy function. Two functions were acquired at different collision energies: a low energy function obtained at 2 eV; and a high-energy function obtained using a collision energy ramp ranging from 15 to 30 eV and spectra data collected between m/z 50 and 800. The data station operating the software was a MassLynx version 4.1, while metabolites were identified by means of Metabolynx XS (Waters, Micromass, Manchester, UK).
In this work the following routes were selected for these searches: phase I metabolites Reduction (+H2), Hydroxylation (O), Hydration (+H2O), 2xHydroxylation (+O2), Deacetylation (-C2H2O) and Demethylation (-CH2); and phase II metabolites Acetylation (+C2H2O) and Glucuronide (+C6H8O6).

NCc1ccccc1 [RC 1]
Embryos in which the LCM compound is present (Maternal Dose 10 mg/kg): Embryo1 and 2 | presence in the serum of mothers: detected in the serum of all mothers | number of embryos in which detected (embryo from a dam treated with 10 mg/kg LCM): 1

CC(=O)N[C@H](CO)C(=O)NCc1ccccc1 [RC 2, O-Demethyl LCM]
Embryos in which the LCM compound is present (Maternal Dose 10 mg/kg): Embryo1 and 2 | Embryos in which the LCM compound is present (Maternal Dose 80 mg/kg): Embryo 5 and 6 | presence in the serum of mothers: detected in the serum of all mothers | number of embryos in which detected (embryos from dams treated with 10 mg/kg and 80 mg/kg LCM): 2

COC[C@@H](N)C(=O)NCc1ccccc1 [deacetylacosamide]
presence in samples from mothers (mothers who received 10 mg/kg LCM): contained

CC(=O)N[C@H](CO)C(=O)NCc1ccccc1 [desmethylacosamide]
presence in samples from dams (dams that received 120 mg/kg LCM): some samples from the corresponding dams contained
